Test results: patent US8871772B2, “Therapeutic methods and compounds” (Ampio Pharmaceuticals, Inc., priority 2008, dated 2014)

What was measured:
[1] = test system: U-118 metastatic astrocytoma cell line; assay: Proliferation of U-118 cancer cells, Promega cell titer assay; format: cell-based
Method: Assays were performed to determine the effect of Cpd. 5 on proliferation of an additional cancer cell line. This cell line was the U-118 metastatic astrocytoma cell line. It was obtained from ATCC.
To perform the assays, a 50 mM stock solution of Cpd. 5 was prepared in DMSO and frozen at −80° C. […] Controls containing equivalent amounts of DMSO to the 300 μM solution were mixed for comparative purposes. 100 μl of the resulting solutions were then added to 96 well culture plates in triplicate and placed in a 37° C. incubator with 5% CO2 to warm.
(§1) Cells were removed from passage flasks using trypsin and ethylenediaminetetracetic acid (EDTA) and counted using trypan blue to establish cell counts/ml and viability. For all experiments, viability of cells was greater than 95%. Solutions of 4,000 cells/100 μl were prepared in the medium from above, and 100 μl of the solutions were added to each well of the plates. The plates were placed back in the incubator and incubated with the compounds for 96 hours.
(§2) Following incubation, cell proliferation was assayed by adding 20 μl Promega cell titer aqueous one reagent to each well. Promega cell titer reagent is a solution containing a tetrazolium dye that is reduced by living cells to a formazan dye, and this reduction is proportional to the number of living cells present in the well. The plates were incubated at 37° C. for an additional 4 hours to allow the colorimetric assay to develop, and the OD of each well was determined in a microplate reader using a 530 nm filter. The OD of wells containing cell titer reagent in culture medium with no cells was subtracted from the OD of all experimental readings.
The % decrease of the total cell titer signal was determined using the following formula. ((Diluent OD−Experimental OD)/Diluent OD))×100. Data are presented in Table 5 as mean % decrease of cell titer signal of three separate experiments, plus or minus standard deviation. In the mean % decrease column, a positive number means a decrease in cell titer signal, while a negative number means an increase in cell titer signal. The p values were calculated versus diluent controls.
The above experiment was repeated using the U-118 cells at 3000 cells/well.

[2] = test system: AU565 breast cancer cell line; assay: Proliferation of AU565 cancer cells, Promega cell titer assay; format: cell-based; details: 96 hours, negative number = increase
Method: Assays were performed to determine the effect of Cpd. 5 (synthesis described in Example 1) on proliferation of two cancer cell lines. These two cell lines were STTG grade 4 astrocytoma cell line and AU565 breast cancer cell line. Both cell lines were obtained from American Type Culture Collection, Rockville, Md. (ATCC).
To perform the assays, a 50 mM stock solution of Cpd. 5 was prepared in DMSO and frozen at −80° C. Aliquots of the stock solution were removed and 100 μM dilutions were made in Iscove's modified Dulbecco's medium (IMDM; obtained from ATCC) supplemented with 10% fetal bovine serum (FBS) and penicillin/streptomycin solution. Controls containing equivalent amounts of DMSO to the 100 μM solution were mixed for comparative purposes. 100 μl of the resulting solutions were then added to 96 well culture plates in triplicate and placed in a 37° C. incubator with 5% CO2 to warm.
as §1, with “At this point, cells” for “Cells”, “trypsin” for “trypsin and ethylenediaminetetracetic acid (EDTA)”, “above” for “above,”
as §2, with “Promega cell titer reagent is a solution containing a tetrazolium dye that is reduced by living cells to a formazan dye, and this reduction is proportional to the number of living cells present in the well.” left out, “4-18” for “4”
The % decrease of the total cell titer signal was determined using the following formula. […] The p values were calculated versus diluent controls.

SMILES | MEAN % DECREASE of cell titer signal ([1]; U-118, 3000 cells/well, 40 μM final) [%] | MEAN % DECREASE of cell titer signal ([1]; U-118, 4,000 cells/well, 20 μM final, 96 hours) [%] | MEAN % DECREASE of cell titer signal ([2]; AU565, 20 μM) [%] | MEAN % DECREASE of cell titer signal ([1]; U-118, 3000 cells/well, 25 μM final) [%] | MEAN % DECREASE of cell titer signal ([1]; U-118, 3000 cells/well, 37.5 μM final) [%] | MEAN % DECREASE of cell titer signal ([1]; U-118, 3000 cells/well, 50 μM final) [%] | MEAN % DECREASE of cell titer signal ([1]; U-118, 3000 cells/well, 75 μM final) [%] | MEAN % DECREASE of cell titer signal ([1]; U-118, 3000 cells/well, 100 μM final) [%] | MEAN % DECREASE of cell titer signal ([1]; U-118, 3000 cells/well, 150 μM final) [%] | MEAN % DECREASE of cell titer signal ([1]; U-118, 4,000 cells/well, 25 μM final, 96 hours) [%] | MEAN % DECREASE of cell titer signal ([1]; U-118, 4,000 cells/well, 37.5 μM final, 96 hours) [%] | MEAN % DECREASE of cell titer signal ([1]; U-118, 4,000 cells/well, 50 μM final, 96 hours) [%] | MEAN % DECREASE of cell titer signal ([1]; U-118, 4,000 cells/well, 75 μM final, 96 hours) [%] | MEAN % DECREASE of cell titer signal ([1]; U-118, 4,000 cells/well, 100 μM final, 96 hours) [%] | MEAN % DECREASE of cell titer signal ([1]; U-118, 4,000 cells/well, 150 μM final, 96 hours) [%] | MEAN % DECREASE of cell titer signal ([2]; AU565, 50 μM) [%]
O=c1cc(N2CCOCC2)oc2c(-c3ccccc3)cccc12 [LY294002, reference compound] | 86.04 | 19.75 | 61.95 | – | – | – | – | – | – | – | – | – | – | – | – | –
COC(=O)C(c1ccc(-c2ccccc2)cc1)C1NC(=O)CNC1=O (stereo not shown) [Cpd. 5, biphenyl-4-yl-(3,6-dioxo-piperazin-2-yl)-acetic acid methyl ester] | – | – | – | −25.28 | −25.28 | −15.63 | −3.05 | 20.51 | 59.70 | −50.62 | −46.50 | −7.82 | 4.11 | 25.93 | 65.84 | 13.44
